According to publication PMC3694096, “Development of Novel In Vivo Chemical Probes to Address CNS Protein Kinase Involvement in Synaptic Dysfunction” (PLoS ONE, 2013):
pIC50: −log10 of the molar value. Read-outs that look alike come from different tables or passages of the source.

Tests used:
[1] = molecular target: T1, DAPK2 (Homo sapiens, UniProt Q9UIK4); experiment: Kinome profiler screen; assay type: biochemical; settings: at 20,000 nM inhibitor; kinase activity remaining
T1 construct: purchased Millipore KinaseProfiler
T1 sequence (Q9UIK4 whole entry): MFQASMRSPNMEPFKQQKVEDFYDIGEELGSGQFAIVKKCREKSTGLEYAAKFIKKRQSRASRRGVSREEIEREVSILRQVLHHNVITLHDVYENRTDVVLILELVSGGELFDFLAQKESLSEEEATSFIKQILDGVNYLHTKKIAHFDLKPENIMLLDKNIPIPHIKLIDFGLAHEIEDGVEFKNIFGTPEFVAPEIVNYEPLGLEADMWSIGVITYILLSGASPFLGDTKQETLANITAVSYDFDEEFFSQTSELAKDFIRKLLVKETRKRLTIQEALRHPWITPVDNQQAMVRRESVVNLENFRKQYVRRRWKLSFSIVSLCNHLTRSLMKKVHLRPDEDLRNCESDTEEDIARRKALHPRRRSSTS

[2] = tested on: primary microglia from wild-type (WT) mice; experiment: LPS-induced IL-1β in primary microglia, wild-type; assay type: cell-based, C57Bl/6 mice; settings: LPS 3 ng/ml, 24 hrs
[3] = molecular target: T2, CLK3 (Homo sapiens, UniProt P49761); experiment: Kinome profiler screen; assay type: biochemical; settings: at 20,000 nM inhibitor; kinase activity remaining
T2 construct: purchased Millipore KinaseProfiler

[4] = molecular target: T3, Yes (Homo sapiens, UniProt P07947); experiment: Kinome profiler screen; assay type: biochemical; settings: at 20,000 nM inhibitor; kinase activity remaining
T3 construct: purchased Millipore KinaseProfiler

[5] = molecular target: T4, PKCθ (Homo sapiens, UniProt Q04759); experiment: Kinome profiler screen; assay type: biochemical; settings: at 20,000 nM inhibitor; kinase activity remaining
T4 construct: purchased Millipore KinaseProfiler

[6] = molecular target: T5, EphB1 (Homo sapiens, UniProt P54762); experiment: Kinome profiler screen; assay type: biochemical
T5 construct: purchased Millipore KinaseProfiler

[7] = molecular target: T6, cSRC (Homo sapiens, UniProt P12931); experiment: Kinome profiler screen; assay type: biochemical; settings: at 20,000 nM inhibitor; kinase activity remaining
T6 construct: purchased Millipore KinaseProfiler
T6 sequence (P12931 whole entry): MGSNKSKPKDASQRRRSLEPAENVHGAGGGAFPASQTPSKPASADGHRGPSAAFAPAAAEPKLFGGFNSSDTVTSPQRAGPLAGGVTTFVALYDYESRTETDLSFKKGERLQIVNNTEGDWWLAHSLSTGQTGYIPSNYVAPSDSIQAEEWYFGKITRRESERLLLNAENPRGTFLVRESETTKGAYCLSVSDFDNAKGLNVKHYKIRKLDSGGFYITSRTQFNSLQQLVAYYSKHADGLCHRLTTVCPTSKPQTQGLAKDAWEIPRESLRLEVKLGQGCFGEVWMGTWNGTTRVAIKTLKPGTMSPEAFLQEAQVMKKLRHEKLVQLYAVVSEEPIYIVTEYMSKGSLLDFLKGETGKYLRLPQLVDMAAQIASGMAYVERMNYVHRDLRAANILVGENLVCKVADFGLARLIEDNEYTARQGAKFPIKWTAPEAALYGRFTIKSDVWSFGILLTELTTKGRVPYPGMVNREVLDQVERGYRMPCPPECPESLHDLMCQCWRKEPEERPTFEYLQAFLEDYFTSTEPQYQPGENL

[8] = molecular target: T7, Axl (Homo sapiens, UniProt P30530); experiment: Kinome profiler screen; assay type: biochemical; settings: at 20,000 nM inhibitor; kinase activity remaining
T7 construct: purchased Millipore KinaseProfiler
T7 sequence (P30530 26-894): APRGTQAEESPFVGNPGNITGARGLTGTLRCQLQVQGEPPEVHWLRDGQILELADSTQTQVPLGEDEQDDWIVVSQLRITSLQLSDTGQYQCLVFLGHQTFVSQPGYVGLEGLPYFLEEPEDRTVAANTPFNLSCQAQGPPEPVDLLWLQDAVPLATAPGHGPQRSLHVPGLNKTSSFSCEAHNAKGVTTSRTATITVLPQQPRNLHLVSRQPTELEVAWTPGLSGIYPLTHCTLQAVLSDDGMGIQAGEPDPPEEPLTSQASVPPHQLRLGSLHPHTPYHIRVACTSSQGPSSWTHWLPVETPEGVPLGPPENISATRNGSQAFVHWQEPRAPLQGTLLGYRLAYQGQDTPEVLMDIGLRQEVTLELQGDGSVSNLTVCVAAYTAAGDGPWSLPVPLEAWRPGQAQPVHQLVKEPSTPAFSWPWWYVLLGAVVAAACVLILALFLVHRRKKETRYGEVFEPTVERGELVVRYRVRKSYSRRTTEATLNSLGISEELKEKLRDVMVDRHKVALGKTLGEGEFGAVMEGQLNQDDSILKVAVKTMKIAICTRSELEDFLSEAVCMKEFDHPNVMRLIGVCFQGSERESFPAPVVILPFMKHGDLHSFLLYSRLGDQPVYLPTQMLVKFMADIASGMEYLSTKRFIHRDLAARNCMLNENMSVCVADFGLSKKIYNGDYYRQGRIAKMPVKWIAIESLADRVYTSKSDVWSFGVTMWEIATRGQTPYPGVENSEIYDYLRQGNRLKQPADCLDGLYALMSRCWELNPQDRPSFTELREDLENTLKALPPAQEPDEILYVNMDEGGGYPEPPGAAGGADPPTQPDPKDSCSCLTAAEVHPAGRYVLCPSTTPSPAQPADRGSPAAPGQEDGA

[9] = molecular target: T8, Abl(T315I) (Homo sapiens, UniProt P00519, T315I); experiment: Kinome profiler screen; assay type: biochemical; settings: at 20,000 nM inhibitor; kinase activity remaining
T8 construct: purchased Millipore KinaseProfiler

[10] = molecular target: T9, MKK4(m) (Mus musculus, UniProt P47809); experiment: Kinome profiler screen; assay type: biochemical; settings: at 20,000 nM inhibitor; kinase activity remaining
T9 construct: purchased Millipore KinaseProfiler

[11] = tested on: IL-1β levels in brain cortex; experiment: LPS-induced brain IL-1β in vivo; set-up: species or system C57Bl/6 mice; settings: 20 mg/Kg oral gavage 1 hr before LPS 0.5 mg/kg i.p.; brain cortex at 6 hrs
[12] = molecular target: T10, CaMKIIγ (Homo sapiens, UniProt Q13555); experiment: Kinome profiler screen; assay type: biochemical; settings: at 20,000 nM inhibitor; kinase activity remaining
T10 construct: purchased Millipore KinaseProfiler

[13] = tested on: MLCK; experiment: Kinome profiler screen; assay type: biochemical; settings: at 20,000 nM inhibitor; kinase activity remaining
[14] = molecular target: T11, MSSK1 (Homo sapiens, UniProt Q9UPE1); experiment: Kinome profiler screen; assay type: biochemical; settings: at 20,000 nM inhibitor; kinase activity remaining
T11 construct: purchased Millipore KinaseProfiler

[15] = molecular target: T12, BTK (Homo sapiens, UniProt Q06187); experiment: Kinome profiler screen; assay type: biochemical; settings: at 20,000 nM inhibitor; kinase activity remaining
T12 construct: purchased Millipore KinaseProfiler

[16] = molecular target: T13, Ret (Homo sapiens, UniProt P07949); experiment: Kinome profiler screen; assay type: biochemical; settings: at 20,000 nM inhibitor; kinase activity remaining
T13 construct: purchased Millipore KinaseProfiler

[17] = molecular target: T14, EGFR(T790M,L858R) (Homo sapiens, UniProt P00533, L858R/T790M); experiment: Kinome profiler screen; assay type: biochemical; settings: at 20,000 nM inhibitor; kinase activity remaining
T14 construct: purchased Millipore KinaseProfiler

[18] = molecular target: T15, PAK5 (Homo sapiens, UniProt Q9P286); experiment: Kinome profiler screen; assay type: biochemical; settings: at 20,000 nM inhibitor; kinase activity remaining
T15 construct: purchased Millipore KinaseProfiler
T15 sequence (Q9P286 whole entry): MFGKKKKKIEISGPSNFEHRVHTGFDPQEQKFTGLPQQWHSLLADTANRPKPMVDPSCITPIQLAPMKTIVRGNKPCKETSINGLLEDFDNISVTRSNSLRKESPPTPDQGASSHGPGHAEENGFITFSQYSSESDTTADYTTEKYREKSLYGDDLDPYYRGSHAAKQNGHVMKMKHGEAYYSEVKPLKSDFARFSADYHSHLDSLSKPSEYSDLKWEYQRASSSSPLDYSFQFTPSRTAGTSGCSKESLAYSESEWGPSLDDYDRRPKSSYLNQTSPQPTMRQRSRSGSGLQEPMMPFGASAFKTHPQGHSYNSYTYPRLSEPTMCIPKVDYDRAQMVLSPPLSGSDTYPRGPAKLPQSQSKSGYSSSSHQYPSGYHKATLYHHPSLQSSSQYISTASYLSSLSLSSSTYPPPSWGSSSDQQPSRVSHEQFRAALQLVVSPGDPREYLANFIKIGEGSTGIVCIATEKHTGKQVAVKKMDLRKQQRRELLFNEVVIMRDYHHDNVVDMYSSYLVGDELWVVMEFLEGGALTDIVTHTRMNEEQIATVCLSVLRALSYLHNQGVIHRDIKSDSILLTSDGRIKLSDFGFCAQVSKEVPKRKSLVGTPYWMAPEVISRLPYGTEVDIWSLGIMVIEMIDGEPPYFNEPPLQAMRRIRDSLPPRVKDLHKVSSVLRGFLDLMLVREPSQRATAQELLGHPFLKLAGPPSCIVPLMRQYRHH

[19] = molecular target: T16, Tec(h) activated (Homo sapiens, UniProt P42680); experiment: Kinome profiler screen; assay type: biochemical; settings: at 20,000 nM inhibitor; kinase activity remaining
T16 construct: purchased Millipore KinaseProfiler

[20] = molecular target: T17, Met(Y1248D) (Homo sapiens, UniProt P08581, Y1230D); experiment: Kinome profiler screen; assay type: biochemical; settings: at 20,000 nM inhibitor; kinase activity remaining
T17 construct: purchased Millipore KinaseProfiler

[21] = molecular target: T18, Met (Homo sapiens, UniProt P08581); experiment: Kinome profiler screen; assay type: biochemical; settings: at 20,000 nM inhibitor; kinase activity remaining
T18 construct: purchased Millipore KinaseProfiler

[22] = molecular target: T19, NLK (Homo sapiens, UniProt Q9UBE8); experiment: biochemical
T19 sequence (Q9UBE8 1-527): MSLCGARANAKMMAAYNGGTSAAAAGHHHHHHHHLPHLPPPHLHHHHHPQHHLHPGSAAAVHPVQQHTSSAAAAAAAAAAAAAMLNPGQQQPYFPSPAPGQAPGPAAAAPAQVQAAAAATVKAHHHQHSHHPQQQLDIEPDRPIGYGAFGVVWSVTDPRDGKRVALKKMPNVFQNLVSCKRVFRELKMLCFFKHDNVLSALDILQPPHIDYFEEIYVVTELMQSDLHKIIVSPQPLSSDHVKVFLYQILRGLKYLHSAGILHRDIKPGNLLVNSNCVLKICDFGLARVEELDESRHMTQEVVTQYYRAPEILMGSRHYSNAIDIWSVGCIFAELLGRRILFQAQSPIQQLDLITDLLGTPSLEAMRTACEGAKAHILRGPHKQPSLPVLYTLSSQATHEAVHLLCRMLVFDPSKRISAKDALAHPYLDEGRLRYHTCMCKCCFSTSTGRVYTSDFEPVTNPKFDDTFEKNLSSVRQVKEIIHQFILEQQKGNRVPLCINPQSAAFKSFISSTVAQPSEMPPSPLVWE

[23] = molecular target: T20, HIPK3 (Homo sapiens, UniProt Q9H422); experiment: Kinome profiler screen; assay type: biochemical; settings: at 20,000 nM inhibitor; kinase activity remaining
T20 construct: purchased Millipore KinaseProfiler

[24] = molecular target: T21, PAK3 (Homo sapiens, UniProt O75914); experiment: Kinome profiler screen; assay type: biochemical; settings: at 20,000 nM inhibitor; kinase activity remaining
T21 construct: purchased Millipore KinaseProfiler

[25] = molecular target: T22, PRAK (Homo sapiens, UniProt Q8IW41); experiment: Kinome profiler screen; assay type: biochemical; settings: at 20,000 nM inhibitor; kinase activity remaining
T22 construct: purchased Millipore KinaseProfiler

[26] = molecular target: T23, TBK1 (Homo sapiens, UniProt Q9UHD2); experiment: Kinome profiler screen; assay type: biochemical; settings: at 20,000 nM inhibitor; kinase activity remaining
T23 construct: purchased Millipore KinaseProfiler

[27] = molecular target: T24, PAR-1Bα (Homo sapiens, UniProt Q7KZI7); experiment: Kinome profiler screen; assay type: biochemical; settings: at 20,000 nM inhibitor; kinase activity remaining
T24 construct: purchased Millipore KinaseProfiler

[28] = molecular target: T25, EphA3 (Homo sapiens, UniProt P29320); experiment: Kinome profiler screen; assay type: biochemical; settings: at 20,000 nM inhibitor; kinase activity remaining
T25 construct: purchased Millipore KinaseProfiler

[29] = molecular target: T26, PKCδ (Homo sapiens, UniProt Q05655); experiment: Kinome profiler screen; assay type: biochemical; settings: at 20,000 nM inhibitor; kinase activity remaining
T26 construct: purchased Millipore KinaseProfiler
T26 sequence (Q05655 whole entry): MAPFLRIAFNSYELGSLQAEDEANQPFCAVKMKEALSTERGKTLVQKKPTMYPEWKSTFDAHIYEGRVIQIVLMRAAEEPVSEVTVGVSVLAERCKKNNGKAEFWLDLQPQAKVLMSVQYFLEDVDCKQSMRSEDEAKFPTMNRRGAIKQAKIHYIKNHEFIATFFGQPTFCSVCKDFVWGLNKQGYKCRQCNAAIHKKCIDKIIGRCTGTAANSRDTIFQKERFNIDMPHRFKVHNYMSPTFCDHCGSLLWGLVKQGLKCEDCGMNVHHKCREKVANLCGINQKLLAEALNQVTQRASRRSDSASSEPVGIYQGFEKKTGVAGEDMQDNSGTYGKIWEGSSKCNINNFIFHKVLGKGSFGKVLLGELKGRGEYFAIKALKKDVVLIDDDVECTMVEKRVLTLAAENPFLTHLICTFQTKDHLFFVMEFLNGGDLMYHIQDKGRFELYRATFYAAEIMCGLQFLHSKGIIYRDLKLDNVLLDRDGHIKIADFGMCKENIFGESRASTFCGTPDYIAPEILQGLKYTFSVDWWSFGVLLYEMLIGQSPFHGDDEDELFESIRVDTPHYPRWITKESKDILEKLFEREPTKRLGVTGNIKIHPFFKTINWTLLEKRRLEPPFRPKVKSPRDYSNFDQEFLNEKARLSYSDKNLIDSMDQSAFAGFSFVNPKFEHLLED

[30] = molecular target: T27, Rse (Homo sapiens, UniProt Q06418); experiment: Kinome profiler screen; assay type: biochemical; settings: at 20,000 nM inhibitor; kinase activity remaining
T27 construct: purchased Millipore KinaseProfiler
T27 sequence (Q06418 41-890): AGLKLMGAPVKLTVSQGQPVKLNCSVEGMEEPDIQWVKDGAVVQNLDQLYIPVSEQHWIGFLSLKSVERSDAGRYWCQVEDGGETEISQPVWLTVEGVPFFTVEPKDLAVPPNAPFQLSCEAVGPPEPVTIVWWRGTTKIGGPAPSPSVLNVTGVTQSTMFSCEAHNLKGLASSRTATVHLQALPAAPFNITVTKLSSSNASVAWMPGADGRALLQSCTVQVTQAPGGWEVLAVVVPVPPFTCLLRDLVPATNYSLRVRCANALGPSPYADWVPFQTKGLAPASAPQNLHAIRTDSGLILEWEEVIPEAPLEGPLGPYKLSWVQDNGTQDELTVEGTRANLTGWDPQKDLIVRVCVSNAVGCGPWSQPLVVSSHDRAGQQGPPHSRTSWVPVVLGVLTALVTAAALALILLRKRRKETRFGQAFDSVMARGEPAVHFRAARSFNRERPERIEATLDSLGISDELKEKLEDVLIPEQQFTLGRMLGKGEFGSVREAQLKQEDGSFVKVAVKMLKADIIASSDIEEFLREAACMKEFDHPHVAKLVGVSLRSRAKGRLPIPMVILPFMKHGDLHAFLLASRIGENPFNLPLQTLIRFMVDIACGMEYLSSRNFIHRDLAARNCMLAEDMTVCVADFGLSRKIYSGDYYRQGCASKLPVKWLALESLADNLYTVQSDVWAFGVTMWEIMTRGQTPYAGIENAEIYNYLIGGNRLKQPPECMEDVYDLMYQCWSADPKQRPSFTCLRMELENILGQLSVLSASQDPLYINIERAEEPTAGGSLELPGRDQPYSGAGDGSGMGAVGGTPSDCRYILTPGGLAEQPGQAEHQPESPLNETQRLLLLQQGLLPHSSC

[31] = molecular target: T28, DYRK2 (Homo sapiens, UniProt Q92630); experiment: Kinome profiler screen; assay type: biochemical; settings: at 20,000 nM inhibitor; kinase activity remaining
T28 construct: purchased Millipore KinaseProfiler

[32] = molecular target: T29, ErbB4 (Homo sapiens, UniProt Q15303); experiment: Kinome profiler screen; assay type: biochemical; settings: at 20,000 nM inhibitor; kinase activity remaining
T29 construct: purchased Millipore KinaseProfiler

[33] = molecular target: T30, ARK5 (Homo sapiens, UniProt O60285); experiment: Kinome profiler screen; assay type: biochemical; settings: at 20,000 nM inhibitor; kinase activity remaining
T30 construct: purchased Millipore KinaseProfiler

[34] = molecular target: T31, LOK (Homo sapiens, UniProt O94804); experiment: Kinome profiler screen; assay type: biochemical; settings: for activity at 20 µM: at 20,000 nM inhibitor, kinase activity remaining
T31 construct: purchased Millipore
T31 sequence (O94804 whole entry): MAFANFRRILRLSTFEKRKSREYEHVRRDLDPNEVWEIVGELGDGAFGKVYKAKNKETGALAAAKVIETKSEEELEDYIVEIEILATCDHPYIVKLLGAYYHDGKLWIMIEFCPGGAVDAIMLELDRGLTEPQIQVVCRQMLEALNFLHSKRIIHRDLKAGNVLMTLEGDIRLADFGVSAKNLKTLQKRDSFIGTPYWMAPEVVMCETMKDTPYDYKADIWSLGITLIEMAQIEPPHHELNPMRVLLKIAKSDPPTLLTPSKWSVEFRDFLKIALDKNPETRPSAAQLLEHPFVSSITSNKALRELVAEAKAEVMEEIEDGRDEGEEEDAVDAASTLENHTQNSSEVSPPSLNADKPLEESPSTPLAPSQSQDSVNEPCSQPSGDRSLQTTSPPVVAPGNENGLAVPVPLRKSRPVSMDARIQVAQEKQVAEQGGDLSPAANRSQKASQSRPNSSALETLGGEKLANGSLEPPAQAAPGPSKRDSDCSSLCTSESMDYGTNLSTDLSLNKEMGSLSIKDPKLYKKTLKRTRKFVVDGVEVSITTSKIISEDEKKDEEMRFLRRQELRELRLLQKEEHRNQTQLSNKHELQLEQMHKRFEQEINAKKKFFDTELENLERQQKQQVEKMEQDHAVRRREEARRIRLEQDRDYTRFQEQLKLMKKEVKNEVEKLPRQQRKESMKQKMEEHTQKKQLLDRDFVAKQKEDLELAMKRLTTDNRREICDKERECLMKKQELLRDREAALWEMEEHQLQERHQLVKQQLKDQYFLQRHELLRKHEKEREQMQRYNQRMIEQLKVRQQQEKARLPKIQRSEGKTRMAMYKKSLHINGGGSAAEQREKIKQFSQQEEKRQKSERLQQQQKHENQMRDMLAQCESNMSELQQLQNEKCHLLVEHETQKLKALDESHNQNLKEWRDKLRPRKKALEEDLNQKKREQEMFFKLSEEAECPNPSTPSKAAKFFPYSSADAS

[35] = molecular target: T32, ULK3 (Homo sapiens, UniProt Q6PHR2); experiment: Kinome profiler screen; assay type: biochemical; settings: at 20,000 nM inhibitor; kinase activity remaining
T32 construct: purchased Millipore KinaseProfiler

[36] = molecular target: T33, Fyn (Homo sapiens, UniProt P06241); experiment: Kinome profiler screen; assay type: biochemical; settings: at 20,000 nM inhibitor; kinase activity remaining
T33 construct: purchased Millipore KinaseProfiler

Row | Structure (SMILES) | activity at 20 µM [1] | activity at 20 µM [3] | activity at 20 µM [4] | activity at 20 µM [5] | activity at 20 µM [7] | activity at 20 µM [8] | activity at 20 µM [9] | activity at 20 µM [10] | LPS-induced IL-1β levels in vivo [11] | activity at 20 µM [12] | activity at 20 µM [14] | activity at 20 µM [15] | activity at 20 µM [16] | activity at 20 µM [17] | activity at 20 µM [18] | activity at 20 µM [19] | activity at 20 µM [20] | activity at 20 µM [21] | pIC50 [22] | activity at 20 µM [23] | also measured
1 | CN(C)c1cc(-c2ccncc2)c(-c2ccc3ccccc3c2)nn1 [MW108, N, N-dimethyl-6-(naphthalen-2-yl)-5-(pyridin-4-yl)pyridazin-3-amine] | 101% | 102% | 63% | 107% | 125% | 106% | 91% | 108% | suppressed LPS-induced IL-1β levels in vivo | 99% | 86% | 97% | 94% | 40% | 102% | 89% | 93% | 118% | 5.92 | 104% | LPS-induced IL-1β production, WT microglia [2]: inhibited LPS-induced IL-1β production; activity at 20 µM [6]: 92%; % Activity [13]: 94%; activity at 20 µM [22]: 20%; activity at 20 µM [24]: 78%; activity at 20 µM [25]: 94%; activity at 20 µM [26]: 96%; activity at 20 µM [27]: 97%; activity at 20 µM [28]: 101%; activity at 20 µM [29]: 101%; activity at 20 µM [30]: 117%; activity at 20 µM [31]: 108%; activity at 20 µM [32]: 52%; activity at 20 µM [33]: 98%; pIC50 [34]: < 4.52; activity at 20 µM [34]: 48%; activity at 20 µM [35]: 95%; activity at 20 µM [36]: 95%
2 | CN(C)c1cc(-c2ccncc2)c(-c2cccc3ccccc23)nn1 [MW181, N,N-dimethyl-6-(naphthalen-1-yl)-5-(pyridin-4-yl)pyridazin-3-amine] | 106% | 101% | 87% | 98% | 101% | 99% | 107% | 91% | suppressed LPS-induced IL-1β levels in vivo | 100% | 100% | 98% | 118% | 80% | 104% | 98% | 94% | 112% | 6.69 | 95% | activity at 20 µM ([6]; at 20,000 nM inhibitor, kinase activity remaining, read-out: % Activity): 100%; activity at 20 µM [24]: 122%; activity at 20 µM [25]: 105%; activity at 20 µM [26]: 98%; activity at 20 µM [27]: 106%; activity at 20 µM [28]: 102%; activity at 20 µM [29]: 92%; activity at 20 µM [30]: 109%; activity at 20 µM [31]: 109%; activity at 20 µM [32]: 78%; activity at 20 µM [33]: 103%; activity at 20 µM [34]: 84%; activity at 20 µM [35]: 106%; activity at 20 µM [36]: 109%
